Measurements: ChEMBL document CHEMBL1201862, “PubChem BioAssay data set” (2004)
The source made the active and inactive calls.

Key:
Leucine aminopeptidase = biological target: T1, Leucine aminopeptidase (Plasmodium falciparum 3D7, UniProt Q8IL11); test: P. falciparum M17LAP inhibitors, primary screen, biochemical, fluorogenic H-Leu-NHMec substrate, 1536-well (AID 1619); format: functional
T1 sequence (Q8IL11 whole entry): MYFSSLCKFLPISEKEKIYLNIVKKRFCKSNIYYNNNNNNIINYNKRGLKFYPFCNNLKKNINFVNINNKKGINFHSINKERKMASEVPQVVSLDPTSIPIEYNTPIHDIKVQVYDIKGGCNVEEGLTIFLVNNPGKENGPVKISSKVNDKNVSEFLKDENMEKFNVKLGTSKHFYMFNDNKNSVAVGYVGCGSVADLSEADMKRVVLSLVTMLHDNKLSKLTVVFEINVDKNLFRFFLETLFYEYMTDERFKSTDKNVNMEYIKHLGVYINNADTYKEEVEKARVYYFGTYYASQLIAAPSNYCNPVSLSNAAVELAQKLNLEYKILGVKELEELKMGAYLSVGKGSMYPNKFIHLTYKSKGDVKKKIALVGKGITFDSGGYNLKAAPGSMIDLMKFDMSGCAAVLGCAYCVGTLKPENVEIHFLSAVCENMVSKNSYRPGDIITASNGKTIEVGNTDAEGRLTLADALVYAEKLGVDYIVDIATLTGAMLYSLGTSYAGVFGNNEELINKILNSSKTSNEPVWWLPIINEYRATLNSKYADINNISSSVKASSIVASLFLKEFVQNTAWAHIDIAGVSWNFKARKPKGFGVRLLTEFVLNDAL

Aminopeptidase N = biological target: T2, Aminopeptidase N (Plasmodium falciparum FcB1/Columbia, UniProt O96935); test: P. falciparum M1AAP inhibitors, biochemical, fluorogenic H-Leu-NHMec substrate, 1536-well (AID 1445); set-up: species or system Plasmodium falciparum 3D7, 3D7
T2 sequence (O96935 whole entry): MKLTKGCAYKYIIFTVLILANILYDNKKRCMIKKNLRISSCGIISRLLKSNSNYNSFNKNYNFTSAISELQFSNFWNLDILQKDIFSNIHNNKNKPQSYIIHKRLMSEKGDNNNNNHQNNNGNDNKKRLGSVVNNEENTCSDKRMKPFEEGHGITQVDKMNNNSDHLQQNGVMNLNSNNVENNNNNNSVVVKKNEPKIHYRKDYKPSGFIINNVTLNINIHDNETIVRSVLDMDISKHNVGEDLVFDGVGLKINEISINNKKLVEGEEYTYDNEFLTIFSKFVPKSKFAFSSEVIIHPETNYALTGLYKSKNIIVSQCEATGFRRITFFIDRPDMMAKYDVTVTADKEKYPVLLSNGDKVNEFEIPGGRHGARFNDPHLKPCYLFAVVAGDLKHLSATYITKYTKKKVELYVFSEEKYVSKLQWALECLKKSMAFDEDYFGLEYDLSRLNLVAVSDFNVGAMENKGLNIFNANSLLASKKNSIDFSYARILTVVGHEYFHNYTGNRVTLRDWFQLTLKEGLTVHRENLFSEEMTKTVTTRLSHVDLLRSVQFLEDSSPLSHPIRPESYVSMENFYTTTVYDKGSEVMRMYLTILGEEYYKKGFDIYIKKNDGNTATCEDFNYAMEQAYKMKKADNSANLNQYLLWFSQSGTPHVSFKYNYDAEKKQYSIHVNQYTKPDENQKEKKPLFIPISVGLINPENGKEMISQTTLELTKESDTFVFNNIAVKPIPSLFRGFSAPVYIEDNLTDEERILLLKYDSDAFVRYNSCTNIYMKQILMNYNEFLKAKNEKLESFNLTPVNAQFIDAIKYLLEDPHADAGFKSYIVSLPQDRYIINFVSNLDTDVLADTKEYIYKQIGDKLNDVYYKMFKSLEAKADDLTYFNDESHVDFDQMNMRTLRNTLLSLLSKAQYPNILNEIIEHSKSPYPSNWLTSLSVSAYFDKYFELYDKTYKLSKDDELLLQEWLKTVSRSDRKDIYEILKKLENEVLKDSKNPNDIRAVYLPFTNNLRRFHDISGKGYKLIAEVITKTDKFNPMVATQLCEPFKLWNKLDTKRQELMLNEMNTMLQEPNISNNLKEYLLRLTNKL

NS3 = NS3 (Hepatitis C virus, UniProt A3EZJ3); test: PubChem AID 2173; set-up: species or system Hepacivirus hominis
NS3, sequence (A3EZJ3 whole entry): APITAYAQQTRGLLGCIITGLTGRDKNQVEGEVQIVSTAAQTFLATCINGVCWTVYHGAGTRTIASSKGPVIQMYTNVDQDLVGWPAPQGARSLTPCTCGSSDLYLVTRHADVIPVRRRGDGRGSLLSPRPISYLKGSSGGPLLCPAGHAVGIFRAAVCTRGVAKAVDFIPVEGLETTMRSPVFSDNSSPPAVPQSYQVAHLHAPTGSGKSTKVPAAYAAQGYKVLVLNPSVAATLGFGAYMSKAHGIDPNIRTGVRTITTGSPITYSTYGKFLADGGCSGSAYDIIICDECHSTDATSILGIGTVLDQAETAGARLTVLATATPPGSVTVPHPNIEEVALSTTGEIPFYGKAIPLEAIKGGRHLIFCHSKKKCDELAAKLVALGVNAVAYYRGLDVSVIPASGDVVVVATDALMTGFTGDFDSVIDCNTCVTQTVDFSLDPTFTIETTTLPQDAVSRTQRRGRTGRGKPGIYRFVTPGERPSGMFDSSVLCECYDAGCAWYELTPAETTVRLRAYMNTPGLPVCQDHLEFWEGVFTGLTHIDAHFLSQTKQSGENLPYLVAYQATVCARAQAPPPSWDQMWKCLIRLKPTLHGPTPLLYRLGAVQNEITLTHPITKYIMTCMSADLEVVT

[1] = biological target: FAD-linked sulfhydryl oxidase ALR (Homo sapiens, UniProt P55789); test: inhibitors of human ALR sulfhydryl oxidase, dose response, biochemical, H2O2 detection, luminescence, cherry-pick (AID 493248)
FAD-linked sulfhydryl oxidase ALR, sequence (P55789 whole entry): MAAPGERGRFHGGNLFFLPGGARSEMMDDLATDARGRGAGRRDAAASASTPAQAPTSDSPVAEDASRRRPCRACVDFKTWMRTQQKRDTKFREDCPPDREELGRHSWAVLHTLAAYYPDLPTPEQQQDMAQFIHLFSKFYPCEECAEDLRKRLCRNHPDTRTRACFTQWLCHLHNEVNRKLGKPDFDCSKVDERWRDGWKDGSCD

Hexokinase HKDC1 = biological target: T3, Hexokinase HKDC1 (Homo sapiens, UniProt Q2TB90); test: HKDC1 hexokinase inhibitors, dose response, biochemical, W721R variant (AID 504729); format: functional
T3 sequence (Q2TB90 whole entry): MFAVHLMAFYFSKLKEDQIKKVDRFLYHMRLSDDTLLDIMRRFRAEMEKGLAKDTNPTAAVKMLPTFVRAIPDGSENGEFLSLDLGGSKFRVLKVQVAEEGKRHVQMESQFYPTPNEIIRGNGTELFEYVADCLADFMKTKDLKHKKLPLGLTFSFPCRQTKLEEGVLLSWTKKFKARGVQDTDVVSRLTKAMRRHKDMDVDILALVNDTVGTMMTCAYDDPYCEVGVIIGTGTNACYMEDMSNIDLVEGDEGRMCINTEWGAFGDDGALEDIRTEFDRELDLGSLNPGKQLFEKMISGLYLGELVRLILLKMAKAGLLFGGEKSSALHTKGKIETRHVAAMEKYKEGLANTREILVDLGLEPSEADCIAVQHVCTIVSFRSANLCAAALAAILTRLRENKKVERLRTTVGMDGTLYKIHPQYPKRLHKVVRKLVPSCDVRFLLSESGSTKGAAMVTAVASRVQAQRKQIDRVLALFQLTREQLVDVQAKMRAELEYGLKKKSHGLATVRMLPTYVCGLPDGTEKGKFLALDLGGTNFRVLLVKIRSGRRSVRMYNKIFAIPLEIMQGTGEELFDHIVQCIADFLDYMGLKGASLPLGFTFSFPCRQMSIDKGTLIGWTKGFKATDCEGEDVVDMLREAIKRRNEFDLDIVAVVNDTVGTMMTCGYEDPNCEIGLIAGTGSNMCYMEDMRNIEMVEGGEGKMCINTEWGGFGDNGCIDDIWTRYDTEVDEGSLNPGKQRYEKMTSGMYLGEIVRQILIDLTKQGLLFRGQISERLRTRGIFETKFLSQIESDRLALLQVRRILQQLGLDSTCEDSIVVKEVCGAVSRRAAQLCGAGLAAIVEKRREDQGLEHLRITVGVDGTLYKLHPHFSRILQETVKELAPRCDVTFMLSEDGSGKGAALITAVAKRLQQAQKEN

Cytochrome P450 2C9 = Cytochrome P450 2C9 (Homo sapiens, UniProt P11712); conditions: Potency
Cytochrome P450 2C9, sequence (P11712 whole entry): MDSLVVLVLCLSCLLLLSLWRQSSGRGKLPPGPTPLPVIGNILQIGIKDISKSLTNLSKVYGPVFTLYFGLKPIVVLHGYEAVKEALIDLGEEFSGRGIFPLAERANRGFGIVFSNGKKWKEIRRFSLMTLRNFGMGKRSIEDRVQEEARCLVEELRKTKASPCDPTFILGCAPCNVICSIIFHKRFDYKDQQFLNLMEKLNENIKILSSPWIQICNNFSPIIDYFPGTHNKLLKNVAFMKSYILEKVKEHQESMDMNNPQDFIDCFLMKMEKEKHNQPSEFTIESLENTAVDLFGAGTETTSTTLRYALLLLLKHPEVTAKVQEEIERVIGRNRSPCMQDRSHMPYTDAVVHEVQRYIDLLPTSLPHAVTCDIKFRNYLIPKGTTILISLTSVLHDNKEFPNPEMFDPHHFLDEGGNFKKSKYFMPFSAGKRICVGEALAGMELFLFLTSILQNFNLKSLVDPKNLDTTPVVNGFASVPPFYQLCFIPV

Cytochrome P450 2D6 = Cytochrome P450 2D6 (Homo sapiens, UniProt P10635);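 further: CYP2D6 member of a cytochrome P450 panel assay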
Cytochrome P450 2D6, sequence (P10635 whole entry): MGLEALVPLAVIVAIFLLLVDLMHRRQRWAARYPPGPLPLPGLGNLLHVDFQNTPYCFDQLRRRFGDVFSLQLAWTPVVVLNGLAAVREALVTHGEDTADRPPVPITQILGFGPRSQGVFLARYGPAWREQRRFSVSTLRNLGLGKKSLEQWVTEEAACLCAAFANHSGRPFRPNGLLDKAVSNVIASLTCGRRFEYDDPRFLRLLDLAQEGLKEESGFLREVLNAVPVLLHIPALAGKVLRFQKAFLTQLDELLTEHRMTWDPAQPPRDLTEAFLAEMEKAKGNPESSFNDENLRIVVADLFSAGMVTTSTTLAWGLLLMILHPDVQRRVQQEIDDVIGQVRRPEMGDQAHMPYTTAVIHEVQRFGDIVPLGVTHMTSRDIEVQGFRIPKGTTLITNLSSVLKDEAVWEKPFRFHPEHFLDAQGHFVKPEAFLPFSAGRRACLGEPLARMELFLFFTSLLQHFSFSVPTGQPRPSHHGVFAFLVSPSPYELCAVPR

HeLa = test: Cytotoxicity counterscreen assay for transcriptional activators of heat shock protein 70 (Hsp70). [Related pubchem assays: 1203, 1252 ]; format: functional; conditions: Homo sapiens;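 further: cells exposed to compound for 16 hours before readout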
[2] = biological target: T4, Alkaline phosphatase, tissue-nonspecific isozyme (Homo sapiens, UniProt P05186)
T4 sequence (P05186 whole entry): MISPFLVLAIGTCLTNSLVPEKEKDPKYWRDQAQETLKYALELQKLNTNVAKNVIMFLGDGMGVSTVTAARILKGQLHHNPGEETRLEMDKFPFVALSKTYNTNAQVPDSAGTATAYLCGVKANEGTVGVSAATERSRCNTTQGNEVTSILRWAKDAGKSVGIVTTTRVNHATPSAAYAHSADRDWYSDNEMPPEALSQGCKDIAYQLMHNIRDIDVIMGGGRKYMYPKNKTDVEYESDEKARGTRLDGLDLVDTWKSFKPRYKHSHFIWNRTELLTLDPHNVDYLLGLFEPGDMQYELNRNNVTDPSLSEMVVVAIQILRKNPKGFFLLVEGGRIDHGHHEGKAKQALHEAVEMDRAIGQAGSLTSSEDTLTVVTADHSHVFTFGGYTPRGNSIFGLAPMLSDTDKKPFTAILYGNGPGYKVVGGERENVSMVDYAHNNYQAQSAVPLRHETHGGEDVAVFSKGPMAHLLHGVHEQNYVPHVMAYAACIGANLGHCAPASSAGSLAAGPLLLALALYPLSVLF

Cytochrome P450 2C19 = Cytochrome P450 2C19 (Homo sapiens, UniProt P33261); test: Cytochrome panel assay with activity outcomes. Panel member name: p450-cyp2c19 Compounds with AC50 equal or less than 10 uM are considered active; format: functional; conditions: read-out: AC50
Cytochrome P450 2C19, sequence (P33261 whole entry): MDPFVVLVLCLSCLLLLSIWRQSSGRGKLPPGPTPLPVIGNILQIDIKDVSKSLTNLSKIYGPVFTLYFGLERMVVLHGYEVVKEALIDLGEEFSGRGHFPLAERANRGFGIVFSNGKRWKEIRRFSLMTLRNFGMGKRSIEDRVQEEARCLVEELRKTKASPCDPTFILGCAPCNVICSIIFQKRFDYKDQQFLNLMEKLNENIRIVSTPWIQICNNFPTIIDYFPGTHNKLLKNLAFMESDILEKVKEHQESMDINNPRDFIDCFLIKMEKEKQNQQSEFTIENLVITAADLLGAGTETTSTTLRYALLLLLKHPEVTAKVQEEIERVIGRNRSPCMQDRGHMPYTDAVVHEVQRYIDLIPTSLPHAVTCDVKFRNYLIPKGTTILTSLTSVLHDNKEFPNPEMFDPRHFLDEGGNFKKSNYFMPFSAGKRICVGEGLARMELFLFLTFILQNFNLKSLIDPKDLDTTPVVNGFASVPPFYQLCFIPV

[3] = biological target: Eukaryotic translation initiation factor 4H (Homo sapiens, UniProt Q15056); test: human eIF4H binding inhibitors, primary screen, translation initiation inhibitor project, biochemical, uHTS, fluorescence polarization (AID 2012)
[4] = biological target: Polyadenylate-binding protein 1 (Homo sapiens, UniProt P11940); test: PABP poly(A) RNA binding inhibitors, primary screen, biochemical, fluorescence polarization, uHTS (AID 2014)
Polyadenylate-binding protein 1, sequence (P11940 whole entry): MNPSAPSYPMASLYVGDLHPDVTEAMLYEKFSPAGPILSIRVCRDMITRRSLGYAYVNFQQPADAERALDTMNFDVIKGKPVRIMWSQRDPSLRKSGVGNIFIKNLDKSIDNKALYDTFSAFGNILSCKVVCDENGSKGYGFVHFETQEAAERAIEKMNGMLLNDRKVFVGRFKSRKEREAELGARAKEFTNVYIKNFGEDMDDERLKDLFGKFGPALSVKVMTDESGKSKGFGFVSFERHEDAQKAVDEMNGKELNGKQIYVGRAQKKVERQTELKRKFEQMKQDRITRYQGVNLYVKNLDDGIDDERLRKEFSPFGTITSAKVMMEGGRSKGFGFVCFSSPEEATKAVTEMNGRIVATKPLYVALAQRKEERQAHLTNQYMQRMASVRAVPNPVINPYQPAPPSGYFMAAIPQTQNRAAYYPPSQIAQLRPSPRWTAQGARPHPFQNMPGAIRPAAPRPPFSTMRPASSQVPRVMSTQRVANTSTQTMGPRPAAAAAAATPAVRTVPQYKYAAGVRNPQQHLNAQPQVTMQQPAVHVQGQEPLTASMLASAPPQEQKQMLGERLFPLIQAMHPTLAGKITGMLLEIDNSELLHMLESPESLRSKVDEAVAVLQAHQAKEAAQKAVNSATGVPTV

[5] = biological target: Luciferin 4-monooxygenase (Photinus pyralis, UniProt P08659); test: firefly luciferase enzyme inhibitors, dose response, biochemical, luminescence (AID 1891)
Luciferin 4-monooxygenase, sequence (P08659 whole entry): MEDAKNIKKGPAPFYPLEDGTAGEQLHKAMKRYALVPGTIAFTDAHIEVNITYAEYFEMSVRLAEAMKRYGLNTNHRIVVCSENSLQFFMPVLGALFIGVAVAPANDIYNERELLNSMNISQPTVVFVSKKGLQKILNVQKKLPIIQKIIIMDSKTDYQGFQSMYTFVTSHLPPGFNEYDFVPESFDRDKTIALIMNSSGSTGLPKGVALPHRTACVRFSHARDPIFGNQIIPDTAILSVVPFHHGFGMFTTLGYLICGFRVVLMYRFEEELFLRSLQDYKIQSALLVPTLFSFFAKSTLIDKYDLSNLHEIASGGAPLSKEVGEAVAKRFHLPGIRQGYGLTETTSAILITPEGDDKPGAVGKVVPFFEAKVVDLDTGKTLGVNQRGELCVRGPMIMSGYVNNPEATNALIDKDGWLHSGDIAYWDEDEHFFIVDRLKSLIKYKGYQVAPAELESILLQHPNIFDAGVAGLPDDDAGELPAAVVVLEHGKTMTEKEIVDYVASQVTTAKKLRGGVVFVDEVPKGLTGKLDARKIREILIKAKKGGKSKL

[6] = Luminescence Cell-Based Dose Confirmation HTS to Identify Inhibitors of Platelet Dense Granule Release. [Related pubchem assays: 1663 (Primary HTS), 1678 (Summary of Project)]; format: functional
[7] = inhibitors of intracellular T. cruzi replication, confirmation, NIH3T3 host cells, beta-gal luminescence (AID 2044); format: functional, cell-based;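 further: intracellular parasites grown in NIH/3T3 mouse fibroblasts as host cells; luminescent beta-galactosidase reporter signal from transgenic T. cruzi replicating inside host cells; inhibitors lower the luminescence signal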
[8] = cytotoxicity toward NIH3T3 fibroblasts, dose response, counter-screen, cell-based, ATP luminescence, mouse fibroblasts (AID 2010); format: functional;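 further: cells exposed to compound for about 90 hours before reading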
[9] = biological target: DNA dC->dU-editing enzyme APOBEC-3A (Homo sapiens, UniProt P31941); test: Dose Response confirmation of small molecule APOBEC3A DNA Deaminase Inhibitors via a fluorescence-based single-stranded DNA deaminase assay. [Related pubchem assays (depositor defined):AID493011, AID493024]; format: functional
DNA dC->dU-editing enzyme APOBEC-3A, sequence (P31941 whole entry): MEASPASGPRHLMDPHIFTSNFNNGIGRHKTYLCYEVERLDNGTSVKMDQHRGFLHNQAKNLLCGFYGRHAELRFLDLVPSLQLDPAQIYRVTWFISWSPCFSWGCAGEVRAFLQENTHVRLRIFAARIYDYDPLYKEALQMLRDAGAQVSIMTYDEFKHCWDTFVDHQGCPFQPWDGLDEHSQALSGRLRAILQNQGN

[10] = biological target: T5, Short transient receptor potential channel 4 (Mus musculus, UniProt Q9QUQ5); test: mouse TRPC4 channel inhibitors, dose response, cell-based, HEK293 TRPC4/mu-opioid, Fluo-4 calcium (AID 434942); format: functional;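 further: potency of inhibitors blocking the TRPC4 calcium response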
T5 sequence (Q9QUQ5 whole entry): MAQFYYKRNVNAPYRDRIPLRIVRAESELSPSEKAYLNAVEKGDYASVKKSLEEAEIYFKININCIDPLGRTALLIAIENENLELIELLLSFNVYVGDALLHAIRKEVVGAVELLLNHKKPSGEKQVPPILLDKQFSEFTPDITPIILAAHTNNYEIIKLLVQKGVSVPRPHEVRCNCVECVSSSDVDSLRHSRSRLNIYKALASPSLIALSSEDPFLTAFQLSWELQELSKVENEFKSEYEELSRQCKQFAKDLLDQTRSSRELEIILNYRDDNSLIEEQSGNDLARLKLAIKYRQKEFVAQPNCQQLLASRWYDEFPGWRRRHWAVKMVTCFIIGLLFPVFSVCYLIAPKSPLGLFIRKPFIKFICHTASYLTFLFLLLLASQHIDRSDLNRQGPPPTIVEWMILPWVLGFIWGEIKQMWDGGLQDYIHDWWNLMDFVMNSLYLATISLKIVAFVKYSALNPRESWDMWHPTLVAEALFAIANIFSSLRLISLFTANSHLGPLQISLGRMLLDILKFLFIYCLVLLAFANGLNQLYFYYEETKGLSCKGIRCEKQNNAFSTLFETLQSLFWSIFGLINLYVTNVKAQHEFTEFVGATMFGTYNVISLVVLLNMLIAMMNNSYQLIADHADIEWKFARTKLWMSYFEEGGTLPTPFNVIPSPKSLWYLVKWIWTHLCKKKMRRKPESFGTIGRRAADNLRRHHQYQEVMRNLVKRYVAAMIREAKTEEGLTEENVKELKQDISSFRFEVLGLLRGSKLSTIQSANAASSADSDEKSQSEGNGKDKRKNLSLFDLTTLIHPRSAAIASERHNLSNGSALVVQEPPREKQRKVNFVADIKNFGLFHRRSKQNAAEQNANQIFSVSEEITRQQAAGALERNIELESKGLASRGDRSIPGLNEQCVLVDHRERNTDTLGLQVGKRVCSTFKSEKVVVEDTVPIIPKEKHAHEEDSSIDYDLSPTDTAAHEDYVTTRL

[11] = cytotoxicity in HEK-293T cells, dose response, cytotoxicity control for TCR NF-kB inhibitor project, luminescence, T-cell screen hits (AID 489026); format: functional, cell-based;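 further: cells exposed to compound about 14 hours before the viability readout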
[12] = biological target: DNA dC->dU-editing enzyme APOBEC-3G (Homo sapiens, UniProt Q9HC16); format: functional;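 further: Dose-response counterscreen measuring inhibition of APOBEC3G DNA deaminase activity, run while confirming APOBEC3A inhibitors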
DNA dC->dU-editing enzyme APOBEC-3G, sequence (Q9HC16 whole entry): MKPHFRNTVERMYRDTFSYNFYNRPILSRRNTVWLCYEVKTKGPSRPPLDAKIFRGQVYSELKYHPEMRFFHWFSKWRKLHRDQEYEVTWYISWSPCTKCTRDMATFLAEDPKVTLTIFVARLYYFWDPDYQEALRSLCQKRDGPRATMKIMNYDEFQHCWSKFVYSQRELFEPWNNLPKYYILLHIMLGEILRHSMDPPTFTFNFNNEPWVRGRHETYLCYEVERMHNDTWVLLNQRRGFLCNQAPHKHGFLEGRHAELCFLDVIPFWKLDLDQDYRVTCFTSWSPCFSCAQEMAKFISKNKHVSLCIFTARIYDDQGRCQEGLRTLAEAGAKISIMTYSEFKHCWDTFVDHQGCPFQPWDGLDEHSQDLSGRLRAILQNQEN

With COc1ccc(S(=O)(=O)NC2=NC(=O)/C(=C/c3ccco3)S2)cc1 the IC50 (Leucine aminopeptidase) was 124 µM (active), the IC50 (Aminopeptidase N) was 99.7 µM (active) and the IC50 (NS3) was 6.31 µM (active). For the same molecule, the AC50 [1] was 14.6 µM (active).

For Cc1cc2cc(CCNC(=O)c3ccc(S(=O)(=O)N4CCCC4)cc3)c(O)nc2cc1C, the IC50 (Hexokinase HKDC1) was 13.6 µM (active).

With CN1CCc2cc3c(cc2[C@@H]1[C@@H]1OC(=O)c2c1ccc1c2OCO1)OCO3 the AC50 (Cytochrome P450 2C9) was 39.8 µM (inconclusive) and the AC50 (Cytochrome P450 2D6) was 12.6 µM (inconclusive).

In the case of Cc1c(O)ccc(C(=O)CN2CCN(Cc3ccc4c(c3)OCO4)CC2)c1O, the CC50 (HeLa) was > 99 µM (not active).

With CCNC(=S)NNC(=O)c1cc(CC(C)C)nc2ccccc12 the EC50 [2] was 63 µM (not active) and the AC50 (Cytochrome P450 2C19) was 0.178 µM (inconclusive).

With CCOc1ccc(NC(=O)C2CCCN2C(=O)Oc2ccccc2)cc1 (stereo unspecified) the IC50 [3] was > 100 µM (inactive) and the IC50 [4] was 1.85 µM (active).

With CC(C)C[C@H]1C(=O)N2CCC[C@@H]2[C@]2(O)O[C@](NC(=O)[C@H]3C=C4c5cccc6[nH]cc(c56)C[C@H]4N(C)C3)(C(C)C)C(=O)N12 the AC50 (Cytochrome P450 2C9) was 12.6 µM (inconclusive).

In the case of Oc1c(/C=N/Nc2cccc3cccnc23)ccc2ccccc12, the EC50 [2] was > 100 µM (not active).

In the case of O=C(Oc1ccc(F)cc1C(=O)/C=C/c1cccs1)c1cccc([N+](=O)[O-])c1, the CC50 (HeLa) was > 33 µM (not active).

For CCCCCn1c2c(c(=N)c3ccccc31)CCC2, the IC50 [3] was > 100 µM (inactive), the EC50 [5] was > 112 µM (not active) and the EC50 [6] was 0.788 µM (active). The EC50 [7] was < 0.1 µM (active), the EC50 [8] was > 60 µM (not active) and the IC50 [4] was 5.93 µM (active). The IC50 [9] was 2.62 µM (active), the EC50 [10] was 1.5 µM (active) and the IC50 [11] was > 80 µM (inactive). For the same molecule, the IC50 [12] was 3.19 µM (active) and the EC50 (cells) was 0.006 µM (active).
